We go through 1 compound from paper PMC6934700, “Structure-Guided Design of a Fluorescent Probe for the Visualization of FtsZ in Clinically Important Gram-Positive and Gram-Negative Bacterial Pathogens” (Scientific Reports, 2019).

Read-outs that look alike come from different tables or passages of the source.

In one assay the target is T1, E. faecium (EfmFtsZ) (Enterococcus faecium, UniProt Q3Y2I1).
T1 sequence (Q3Y2I1 1-413): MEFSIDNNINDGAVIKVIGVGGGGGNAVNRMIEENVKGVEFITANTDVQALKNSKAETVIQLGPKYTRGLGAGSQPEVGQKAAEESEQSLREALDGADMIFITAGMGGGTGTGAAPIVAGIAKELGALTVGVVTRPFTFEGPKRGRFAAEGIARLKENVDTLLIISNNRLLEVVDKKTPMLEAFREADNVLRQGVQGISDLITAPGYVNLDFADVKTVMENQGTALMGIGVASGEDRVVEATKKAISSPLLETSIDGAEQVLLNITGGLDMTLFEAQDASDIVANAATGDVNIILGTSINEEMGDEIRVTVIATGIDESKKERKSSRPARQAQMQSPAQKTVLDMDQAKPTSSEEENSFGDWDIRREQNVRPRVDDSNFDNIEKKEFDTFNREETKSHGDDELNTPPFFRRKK
The assay can be described thus: Fluorescence anisotropy binding of BOFP to EfmFtsZ. Particulars: for Kd: 50 mM Tris-HCl (pH 7.6), 50 mM KCl, 0.1 µM BOFP. The protocol: (§1) Fluorescence anisotropy experiments were performed using an AVIV model ATF105 spectrofluorometer at 15, 25, or 37 °C. In these experiments, bandwidths were set to 4 nm in both the excitation and emission directions, with the excitation and emission wavelengths being set at 488 nm and 510 nm, respectively. BOFP (0.1 µM) was titrated with increasing concentrations (ranging from 0 to 12 µM) of FtsZ in 120 µL of buffer containing 50 mM Tris-HCl (pH 7.6) and 50 mM KCl. After each protein addition, the samples were equilibrated for 3 minutes, whereupon the fluorescence anisotropy was measured.
(§2) In this equation, r0 is the anisotropy of the protein-free compound, r∞ is the anisotropy of the compound in the presence of an infinite concentration of FtsZ, [C]tot is the total concentration of the compound, and [P]tot is the total concentration of protein with each addition. These analyses yielded the equilibrium dissociation constant (Kd) for each binding reaction.
(§3) The binding free energy (ΔG) at temperature T was derived from the corresponding Kd value determined at T using the following relationship:2 ΔG=−RTln(1/Kd)
(§4) The binding enthalpy (ΔH) and entropy (ΔS) were derived from linear fits of the ln(1/Kd) vs. 1/T plots shown in Figs. 3f and 5e using the following relationship:3 ln(1/Kd)=−ΔH/R(1/T)+ΔS/R

The next assay has as its target T2, S. agalactiae (SagFtsZ) (Streptococcus agalactiae, UniProt Q8E183).
T2 sequence (Q8E183 1-426): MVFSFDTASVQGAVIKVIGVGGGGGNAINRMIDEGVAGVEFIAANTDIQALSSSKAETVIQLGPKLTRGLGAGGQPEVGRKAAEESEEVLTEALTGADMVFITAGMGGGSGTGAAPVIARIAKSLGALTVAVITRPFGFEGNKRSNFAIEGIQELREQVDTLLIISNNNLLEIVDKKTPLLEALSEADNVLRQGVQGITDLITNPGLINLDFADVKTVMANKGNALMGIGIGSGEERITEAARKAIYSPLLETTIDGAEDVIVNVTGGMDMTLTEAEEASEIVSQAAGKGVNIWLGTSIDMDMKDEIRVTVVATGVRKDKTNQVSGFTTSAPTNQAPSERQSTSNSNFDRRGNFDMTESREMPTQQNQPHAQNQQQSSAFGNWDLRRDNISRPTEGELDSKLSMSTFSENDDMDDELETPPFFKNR
The experiment in a line: Fluorescence anisotropy binding of BOFP to SagFtsZ. Particulars: for Kd: 50 mM Tris-HCl (pH 7.6), 50 mM KCl, 0.1 µM BOFP. The procedure: as §1, §2, §3, §4

Another assay deals with E. coli (EcFtsZ) (Escherichia coli, UniProt P0A9A6). The assay can be described thus: Fluorescence anisotropy binding of BOFP to EcFtsZ. Particulars: for Kd: 50 mM Tris-HCl (pH 7.6), 50 mM KCl, 0.1 µM BOFP. The protocol:
as §1, §2, §3, §4

Assay [1] relates to FtsZ in E. faecium ATCC 19434 cells. The assay can be described thus: FtsZ visualization by fluorescence microscopy in live cells. The assay is classed as cell-based, Enterococcus faecium. Particulars: 1 µg/mL for 5 minutes. The protocol: All differential interference contrast (DIC) and fluorescence microscopy experiments were conducted using an Olympus BX50 microscope equipped with an X-cite Exacte 200 W mercury lamp, a 100× Olympus UPLSAPO oil immersion objective (1.40 aperture), as well as both Chroma ET-EGFP (FITC/Cy2) and ET mCherry, Texas Red filters. Images were captured using a QImaging Retiga R3 charge-coupled device (CCD) camera and the Ocular-Version 2.0 software package (QImaging).
For visualizing FtsZ in Gram-positive bacteria using BOFP, the bacterial cells were grown to log-phase in media suitable for each individual pathogen. Specifically, S. aureus NRS705 (MRSA) was grown in tryptic soy broth (TSB), E. faecalis ATCC 29212 and E. faecium ATCC 19434 were grown in lactobacilli MRS broth, S. agalactiae ATCC 12386 and S. pneumoniae ATCC 49619 were grown in TH broth, and S. pyogenes ATCC 19615 was grown in CAMH broth supplemented with 3% (v/v) LHB. For each Gram-positive bacterial strain, a total of 1 mL of cell culture was centrifuged at 15,000 × g for 1 minute and washed 2–3 times with 1 mL of PBS. After the final wash, the pelleted cells were resuspended in 500 µL of PBS containing 1 µg/mL of BOFP and incubated in the dark for 5 minutes at room temperature. The cells were then centrifuged at 15,000 × g for 1 minute, washed twice with 1 mL of PBS, and subsequently resuspended in 200 µL of PBS. […]

Setting [2] is: from linear fit of ln(1/Kd) vs. 1/T.

Chain of E. coli (EcFtsZ) (P0A9A6 whole entry): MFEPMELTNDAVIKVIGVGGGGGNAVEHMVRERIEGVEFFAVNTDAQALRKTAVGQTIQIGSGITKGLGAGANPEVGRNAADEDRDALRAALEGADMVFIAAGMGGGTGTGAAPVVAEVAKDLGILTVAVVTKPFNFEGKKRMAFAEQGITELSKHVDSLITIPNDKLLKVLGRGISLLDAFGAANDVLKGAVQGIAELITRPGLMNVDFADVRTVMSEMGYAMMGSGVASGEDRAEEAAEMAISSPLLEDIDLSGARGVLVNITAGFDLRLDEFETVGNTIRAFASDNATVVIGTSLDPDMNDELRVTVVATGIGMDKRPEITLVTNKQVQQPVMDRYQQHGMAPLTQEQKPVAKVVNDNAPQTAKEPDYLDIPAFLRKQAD

In the case of `CC1=CC(C)=[N+]2C1=Cc1ccc(CCC(=O)OCC(Oc3ccc(F)c(C(N)=O)c3F)c3nc(-c4ccc(C(F)(F)F)cc4)c(Br)o3)n1[B-]2(F)F` (centres unmarked) [BOFP], the Kd is 2500 ± 140 nM on E. faecium (EfmFtsZ) (15 °C, read-out: Kd - 15 °C); 2620 ± 80 nM on E. faecium (EfmFtsZ) (25 °C, read-out: Kd - 25 °C); 3140 ± 220 nM at E. faecium (EfmFtsZ) (37 °C, read-out: Kd - 37 °C); 620 ± 50 nM at S. agalactiae (SagFtsZ) (15 °C, read-out: Kd - 15 °C); 1020 ± 90 nM on S. agalactiae (SagFtsZ) (25 °C, read-out: Kd - 25 °C); 1310 ± 40 nM at S. agalactiae (SagFtsZ) (37 °C, read-out: Kd - 37 °C). The Kd on E. coli (EcFtsZ) (15 °C, read-out: Kd - 15 °C) worked out at 220 ± 30 nM; on E. coli (EcFtsZ) (25 °C, read-out: Kd - 25 °C), 280 ± 20 nM; at E. coli (EcFtsZ) (37 °C, read-out: Kd - 37 °C), 440 ± 40 nM. In addition, the figures for the ΔH on E. faecium (EfmFtsZ) (setting [2]), at S. agalactiae (SagFtsZ) (setting [2]) and on E. coli (EcFtsZ) (setting [2]) were -1.9 ± 0.6 kcal/mol, -6.6 ± 0.6 kcal/mol and -5.6 ± 0.8 kcal/mol, respectively. Also, the ΔG on E. coli (EcFtsZ) (calculated at T = 310 K (37 °C) from Kd) is -9.0 ± 0.1 kcal/mol. In addition, the “Fluorescence staining / FtsZ labeling in live cells” value in assay [1] is “bright bands of fluorescence staining are clearly visible at midcell”.
